The text below walks through data of patent publication US11446314B2, “Immunoablative therapies” (AVM Biotechnology LLC, priority 2018, dated 2022).

Each structure is given as a SMILES string. “Also recorded” adds a separate entry of the source.

For data set [1], the system named is RBC. The note with it: doses of about 24 mg/50 kg; cited from earlier work.
For data set [2], the system named is germinal centers. As to the kind of experiment: FITC-PNA staining of germinal centers in mouse spleen sections. The data set is classed as in vivo. The note with it: for HED dose from which germinal centers are reduced: acute dose, about; for Germinal Center staining intensity in spleen: 48 hours before spleen harvest. Here is the method:
FIG. 2. […] A graph of column plots of average Germinal Center staining intensity measured using immunofluorescent staining of fresh thick spleen sections stained with FITC-PNA is shown. Immunofluorescent intensity was calculated using thresholding and MetaMorph Image Analysis. Columns are average plus SEM.
The spleens were removed, weighed wet, and then fixed in 10% formalin. Subsequently the spleens were sectioned via proprietary methods and then incubated with FITC-PNA at 4 degC for 24 hours, washed, placed on slides and immunofluorescent images were captured. Metamorph software was used to quantify the immunofluorescent signal.

Data set [3] concerns CD4+, CD8+, Tregs and B cells. The experiment in a line: Preliminary dose escalation studies in naïve mouse and rat models. The data set is classed as in vivo.
Data set [4] concerns lymphocytes. As to the kind of experiment: Flow cytometry of blood cells in human patients before and 48 hours after oral 3 mg/kg dexamethasone base. An excerpt: FIG. 14. […] Each patient's pre-treatment values are connected to post-treatment values by a connecting line. CD4+ cells are also CD3+. CD8+ cells are also CD3+.
FIG. 15. […] Each patient's pre-treatment values are connected to post-treatment values by a connecting line. Tregs are identified by being CD3+CD4+CD25+FoxP3+. B lymphocytes are identified by being CD3−CD19+.
FIG. 16. […] Each patient's pre-treatment values are connected to post-treatment values by a connecting line. NK cells are identified by being CD3−CD16/56+. HSCs are identified by being CD34+CD38−.
(§1) Blood was drawn before drug treatment and 48 hours post-treatment for CBC analysis and flow cytometry to determine lymphocyte and other blood cell populations. Serum was analyzed for cytokine levels.
Background: Flow cytometry measures light scatter and fluorescence of single cells or particles in a stream.

Data set [5] relates to IL-2, IL-15, IL-6. Here is the method:
as §1

For data set [6], the system named is bone marrow mesenchymal stem cells. As to the kind of experiment: Horse sternal bone marrow MSC number and trilineage differentiation. Type of data set: in vivo. The note with it: horses, 6 mg/kg HED, one hour IV infusion, 48 hours.
Data set [7] in a line: Double-blind controlled horse trial. Type of data set: in vivo. The note with it: horses, acute high dose, out to 70 days.
Data set [8] in a line: Clinical chemistries in mice. The data set is classed as in vivo, mouse.
The subject of data set [9] is lymphocytes. The experiment in a line: Lymphodepletion in C57B1 female mice. The note with it: oral, HED 12, 15, 18 mg/kg tested. Type of data set: in vivo, mouse.
In data set [10] the test system is B lymphocytes. The experiment in a line: Treatment of patients with autoimmune diseases (Examples 5 and 9). The data set is classed as in vivo, human. The note with it: patient with an autoimmune disease, acute high dose. Here is the method: Acute high dose prednisone doses range from about 19 mg/kg to about 150 mg/kg, with doses between about 56 mg/kg and about 112 mg/kg being preferred, with a repeat (second) administration of this dose 24 hours later and an optional repeat (third) administration of this dose 48-72 hours after the initial dose.

The test system of data set [11] is peripheral blood lymphocytes.
Data set [12] has as its system marginal zone. The note with it: rats IV or PO 20, 40, 80 mg/kg (HED 3.23, 6.45, 12.9 mg/kg), 48 hours.
Experimental: Formalin-fixed spleens were cross-sectioned in 5 pieces, trimmed and embedded in paraffin, sectioned and stained with hematoxylin and eosin (H&E). Measurements of the periarteriolar lymphoid sheath (PAL) diameter and the width of the marginal zone (MZ) in areas of white pulp that had PAL with the greatest diameter were measured using an ocular micrometer.
Data set [13] concerns germinal centers. The note with it: rats IV or PO 20, 40, 80 mg/kg (HED 3.23, 6.45, 12.9 mg/kg), 48 hours.
Experimental: Column plots of the area per spleen of BCL-6 staining of 5 micron fixed spleen sections as a measure of germinal center numbers given as average per section are shown.
Formalin-fixed spleens were cross-sectioned in 5 pieces, trimmed and embedded in paraffin, sectioned and stained with hematoxylin and eosin (H&E). Measurements of the periarteriolar lymphoid sheath (PAL) diameter and the width of the marginal zone (MZ) in areas of white pulp that had PAL with the greatest diameter were measured using an ocular micrometer. BCL-6 immunohistochemical staining in rat spleens was evaluated to determine GC area using automated image analysis methods.
For data set [14], the system named is peripheral blood T and B lymphocytes. The note with it: single oral 0.24 mg/kg dose; cited from earlier work.
Data set [15] concerns pemphigus. The note with it: 100 mgs by 2 hour IV infusion daily for 3 days, every 28 days until cure; cited from earlier work.
Data set [16] deals with spleen cellularity. The note with it: cited from earlier work.
In data set [17] the test system is bone marrow mesenchymal stem cells. The experiment in a line: Human bone marrow MSC number by CFU-F. The note with it: oral 3 mg/kg dexamethasone base, 48 hours, vs 31 historical controls.
The test system of data set [18] is hematopoietic stem cells. The experiment in a line: Live hematopoietic stem cells in naïve mice. The note with it: 48 hours, low or high doses vs placebo.
For data set [19] the following is noted: pharmacodynamic (biologic); cited from earlier work.
Data set [20] relates to spleen weights or germinal centers. The note with it: mice, po daily for 13 weeks; cited from earlier work.
[21] abbreviates: oral 3 mg/kg dexamethasone base, 48 hours.

As for `C[C@H]1C[C@H]2[C@@H]3CCC4=CC(=O)C=C[C@]4(C)[C@@]3(F)[C@@H](O)C[C@]2(C)[C@@]1(O)C(=O)CO` [betamethasone], the “effect on RBC” value in data set [1] is “reduces RBC”.
On to `C[C@@H]1C[C@H]2[C@@H]3CCC4=CC(=O)C=C[C@]4(C)[C@@]3(F)[C@@H](O)C[C@]2(C)[C@@]1(O)C(=O)CO` [dexamethasone], for which the “HED dose from which germinal centers are reduced” value in data set [2] was at least 6 mg/kg. Moreover, in data set [2] (listed as Dexamethasone), the “HED dose from which germinal centers are reduced” value was at least 3 mg/kg. In addition, in [2] (mice, HED 6 mg/kg), the “Germinal Center staining intensity in spleen” value was “Germinal center reduction is apparent”. In [2] (mice, HED 9 and 12 mg/kg), the “Germinal Center staining intensity in spleen” value was “not significantly reduced until HED of 9 and 12 mg/kg doses; also recorded: significantly reduced”. Also, the “FITC-PNA immunofluorescence (germinal centers) in spleen” value in data set [2] (mice, IP HED 9.3 mg/kg dexamethasone base, 96 hours before spleen harvest) was “almost no immunofluorescent signal”. Also, the “effects of oral dosing compared to IV dosing” value in data set [3] (acute high dose) is listed as “comparable effects”. Moreover, the “reduction in CD4+, CD8+, Tregs and B cells population” value in data set [3] (high doses, 48 hours after administration) was around 98%. Besides, the lymphodepletion entry in data set [3] (high-dose dexamethasone, naïve mouse and rat models) is reported as “complete lymphodepletion”. For the same molecule, the “patients who showed lymphocytosis” value in [4] (3 mg/kg HED) is reported as 50%. For the same molecule, in [4] (setting [21]), the “hematopoietic stem cells (CD34+CD38−)” value is “spared”; the “patients who depleted CD3, CD4 and CD8 positive lymphocytes” value was 2 of 4; the “patients who depleted NK cells” value was 3 of 4; the “patients who depleted Tregs and B lymphocytes” value was 1 of 4. In data set [4] (oral 3 mg/kg, 48 hours), the “patients with lymphocytosis response in CD3 and CD4 lymphocytes” value is 2 of 4; the “patients with lymphocytosis response in CD8, B lymphocytes and NK cells” value is reported as 1 of 4. Also, in [4] (oral 3 mg/kg, 48 hours, un-normalized flow cytometry data), the “patients who responded with lymphodepletion” value was 2 of the 4. For the same molecule, the “dose at which plasma IL-2 and IL-15 cytokine elevations are observed” value in data set [5] (dexamethasone base, HED, about) is listed as at least 3 mg/kg. In addition, in data set [5] (setting [21]), the “patients with elevated levels of IL-2” value was 3 of 4, the “patients with elevated levels of IL-15” value was 4 of 4 and the “patients with increased serum IL-2 and/or IL-15 levels” value is recorded as 100%. The “levels of plasma IL-2 and IL-15 cytokines” value in data set [5] (small number of human osteoarthritis patients, acute high dose) was “elevates”. The “sternal BM MSC stem cell number” value in [6] is recorded as “doubled”. The adverse side effects entry in data set [7] is “no adverse side effects were observed”. In addition, the glucose level result in [8] (after acute high dose dexamethasone) is reported as “not elevated over the normal range”. The “clinical chemistry levels including cholesterol and total protein” value in data set [8] (mice, acute oral HED doses 6-12 mg/kg) was “do not elevate clinical chemistry levels out of normal range”. In addition, the “dose above which lymphoablation is completely evident” value in [9] is on record as “above 18 mg/kg”. Moreover, in [10], the “reduction of B lymphocyte numbers” value is “greater than 90%” and the “reduction of memory B cell populations” value is “greater than 90%”. The “CD3+ T lymphocytes” value in data set [11] (IP 10 mg/kg (HED 0.81 mg/kg) on day −6, −4, −2, control 3370) was determined as 2441 live events. Further, the “B lymphocytes (CD3−CD19+ cells) in the peripheral blood” value in data set [11] (IP 10 mg/kg (HED 0.81 mg/kg) on day −6, −4, −2, vehicle control 10680) is listed as 3733 live events. Also, the “reduction of B lymphocytes” value in data set [11] (IP 10 mg/kg (HED 0.81 mg/kg) on day −6, −4, −2, vs vehicle, significant) is given as 65%. Besides, the “CD3+CD4+CD25+FoxP3+ Tregs” value in data set [11] (same dosing, control 198) came out at 70 live events. In addition, in data set [11] (same dosing, control 1318), the “CD3+CD8 T lymphocytes” value came to 1277 live events. Besides, the “CD3+CD4+ T lymphocytes” value in data set [11] (same dosing, control 1779) stood at 902 live events. The “marginal zone area (width) in spleen” value in data set [12] is reported as “reduced at all dexamethasone doses”. Moreover, in data set [13], the “germinal center area (BCL-6 staining) in spleen” value was “reduced at all dexamethasone doses”. In [14], the “suppression of peripheral blood T and B lymphocytes” value is on record as 80%; the “time at which recovery begins” value is 12 h; the “time to normal levels” value is at most 24 h. In [15], the relapse rate is listed as 15%. Besides, the “lymphodepletion in comparison to total body irradiation” value in data set [16] (HED 0.8 mg/kg on day −6, −4, −2) was “lymphodepleted equivalently to 5Gy TBI”. Further, in [16] (IP 10 mg/kg (HED 0.81 mg/kg) on day −6, −4, −2 before ACT), the reduced spleen cellularity is recorded as 99%. The “ileac crest bone marrow MSC number (CFU-F per ml)” value in data set [17] is recorded as “almost two fold; also recorded: about twice as high”. In data set [18], the “number of live hematopoietic stem cells” value is recorded as “did not significantly alter”.
`C[C@]12C=CC(=O)C=C1CC[C@@H]1[C@@H]2C(=O)C[C@@]2(C)[C@H]1CC[C@]2(O)C(=O)CO` [prednisone]: in data set [10], the “reduction of B lymphocyte numbers” value is reported as “greater than 90%” and the “reduction of memory B cell populations” value is on record as “greater than 90%”. Besides, the biologic half-life result in data set [19] is reported as “about 20 hours”. Besides, the “dose above which spleen weights or germinal centers are significantly impacted” value in data set [20] is on record as “over 2.5 mg/kg”.
